Earlier results, collected in patent US10548859B2, “Methods for storing Cysteamine formulations and related methods of treatment” (Horizon Orphan LLC, priority 2015, dated 2020).

Conditions: children with cystinosis

COc1ccc2c(c1)c(CC(=O)O)c(C)n2C(=O)c1ccc(Cl)cc1 [indomethacin]
reduction of urine volume and liquid consumption: about 30%
